Values after ≈ are worked out from the molar mass of the structure shown.
Assays:
RKO = experiment: Antiproliferative activity against human RKO cells assessed as reduction in cell viability by MTT assay; assay type: functional, cell-based
HeLa = experiment: Antiproliferative activity against human HeLa cells assessed as reduction in cell viability by MTT assay; assay type: functional, cell-based
L02 = experiment: Cytotoxicity against human L02 cells assessed as reduction in cell viability by MTT assay; assay type: cell-based
HepG2 = experiment: Antiproliferative activity against human HepG2 cells assessed as reduction in cell viability by MTT assay; assay type: functional, cell-based
Bacillus thuringiensis = experiment: Antibacterial activity against Bacillus thuringiensis BT01 by CLSI based two-fold serial dilution method; assay type: functional
Bacillus subtilis = experiment: Antibacterial activity against Bacillus subtilis BS01 by CLSI based two-fold serial dilution method; assay type: functional
Staphylococcus aureus [1] = experiment: Antibacterial activity against Staphylococcus aureus 745524 by CLSI based two-fold serial dilution method; assay type: functional
[2] = Cytotoxicity against HUVEC12 assessed as reduction in cell viability by MTT assay; settings: Homo sapiens
Enterococcus faecalis = experiment: Antimicrobial activity against Enterococcus faecalis ATCC 29212 by CLSI based two-fold serial dilution method; assay type: functional
A549 = experiment: Antiproliferative activity against human A549 cells assessed as reduction in cell viability by MTT assay; assay type: functional, cell-based
Staphylococcus aureus [3] = experiment: Antibacterial activity against methicillin-resistant Staphylococcus aureus shhs-A1 by CLSI based two-fold serial dilution method; assay type: functional
Staphylococcus aureus [4] = experiment: Antibacterial activity against Staphylococcus aureus ATCC […] by CLSI based two-fold serial dilution method; assay type: functional; settings: ATCC 29213
MGC-803 = experiment: Antiproliferative activity against human MGC803 cells assessed as reduction in cell viability by MTT assay; assay type: functional, cell-based
MCF7 = experiment: Antiproliferative activity against human MCF7 cells assessed as reduction in cell viability by MTT assay; assay type: functional, cell-based

Q: What does the source list for `CSC1=C2C3=CC(=O)C(O)=C2[C@@H]2O[C@H](CC[C@H](C)/C=C(\C)C[C@@H](C)C[C@H](C)[C@]1(O)O3)[C@H](C)[C@H](O)[C@H]2C`?
A: IC50 (RKO): 3.8 µM; IC50 (HeLa): 5.4 µM; IC50 (L02): 2.2 µM; IC50 (HepG2): 6.7 µM; MIC (Bacillus thuringiensis): 0.5 µg/mL (≈ 0.964 µM); MIC (Bacillus subtilis): 2 µg/mL (≈ 3.86 µM); MIC (Staphylococcus aureus [1]): 1 µg/mL (≈ 1.93 µM); IC50 [2]: 6 µM; MIC (Enterococcus faecalis): 0.5 µg/mL (≈ 0.964 µM); IC50 (A549): 6.8 µM; MIC (Staphylococcus aureus [3]): 1 µg/mL (≈ 1.93 µM); MIC (Staphylococcus aureus [4]): 0.5 µg/mL (≈ 0.964 µM); IC50 (MGC-803): 8.9 µM; IC50 (MCF7): 2.3 µM

Q: With `C/C1=C\[C@@H](C)CC[C@H]2O[C@@H](C3=C(O)C(=O)C=C4O[C@](O)(C=C43)[C@@H](C)C[C@H](C)C1)[C@H](C)[C@@H](O)[C@H]2C` as the compound, how does the IC50 (RKO) read?
A: The IC50 was 6.1 µM.

Q: What about the IC50 (HeLa) of the same compound?
A: Its IC50 is 4.9 µM.

Q: What about the IC50 (L02) of the same compound?
A: Its IC50 is 7.4 µM.

Q: What about the IC50 (HepG2) of the same compound?
A: Its IC50 is 22 µM.

Q: And the MIC (Bacillus thuringiensis)?
A: The MIC was 1 µg/mL (≈ 2.12 µM).

Q: What about the MIC (Bacillus subtilis) of the same compound?
A: The MIC was 2 µg/mL (≈ 4.23 µM).

Q: What about the MIC (Staphylococcus aureus [1]) of the same compound?
A: Its MIC is 1 µg/mL (≈ 2.12 µM).

Q: What about the IC50 [2] of the same compound?
A: Its IC50 is 6 µM.

Q: What about the MIC (Enterococcus faecalis) of the same compound?
A: The MIC was 2 µg/mL (≈ 4.23 µM).

Q: What about the IC50 (A549) of the same compound?
A: The IC50 was 8 µM.

Q: What about the MIC (Staphylococcus aureus [3]) of the same compound?
A: Its MIC is 2 µg/mL (≈ 4.23 µM).

Q: And the MIC (Staphylococcus aureus [4])?
A: Its MIC is 0.5 µg/mL (≈ 1.06 µM).

Q: And the IC50 (MGC-803)?
A: Its IC50 is 3.3 µM.

Q: And the IC50 (MCF7)?
A: Its IC50 is 5.1 µM.

Q: Which IC50 (RKO) does the source give for `CC(=O)N[C@@H](CSC1=C2C3=CC(=O)C(O)=C2[C@@H]2O[C@H](CC[C@H](C)/C=C(\C)C[C@@H](C)C[C@H](C)[C@]1(O)O3)[C@H](C)[C@H](O)[C@H]2C)C(=O)O` here?
A: The IC50 was 34 µM.

Q: What about the IC50 (HeLa) of the same compound?
A: The IC50 was 7.1 µM.

Q: What about the IC50 (L02) of the same compound?
A: The IC50 was 6.2 µM.

Q: And the IC50 (HepG2)?
A: Its IC50 is 44 µM.

Q: What about the MIC (Bacillus thuringiensis) of the same compound?
A: The MIC was 2 µg/mL (≈ 3.16 µM).

Q: What about the MIC (Bacillus subtilis) of the same compound?
A: Its MIC is 8 µg/mL (≈ 12.6 µM).

Q: And the MIC (Staphylococcus aureus [1])?
A: Its MIC is 2 µg/mL (≈ 3.16 µM).

Q: And the IC50 [2]?
A: The IC50 was > 50 µM.

Q: What about the MIC (Enterococcus faecalis) of the same compound?
A: Its MIC is 4 µg/mL (≈ 6.31 µM).

Q: And the IC50 (A549)?
A: Its IC50 is 26 µM.

Q: And the MIC (Staphylococcus aureus [3])?
A: The MIC was 4 µg/mL (≈ 6.31 µM).

Q: And the MIC (Staphylococcus aureus [4])?
A: Its MIC is 1 µg/mL (≈ 1.58 µM).

Q: And the IC50 (MGC-803)?
A: The IC50 was 7.1 µM.

Q: What about the IC50 (MCF7) of the same compound?
A: Its IC50 is 13 µM.

Q: With `CC1(C)S[C@@H]2[C@H](NC(=O)[C@H](N)c3ccccc3)C(=O)N2[C@H]1C(=O)O` [AMPICILLIN] as the compound, how does the MIC (Bacillus thuringiensis) read?
A: The MIC was 32 µg/mL (≈ 91.6 µM).

Q: What about the MIC (Bacillus subtilis) of the same compound?
A: The MIC was 0.25 µg/mL (≈ 0.715 µM).

Q: And the MIC (Enterococcus faecalis)?
A: The MIC was 2 µg/mL (≈ 5.72 µM).

Q: What about the MIC (Staphylococcus aureus [3]) of the same compound?
A: Its MIC is 1 µg/mL (≈ 2.86 µM).

Q: And the MIC (Staphylococcus aureus [4])?
A: The MIC was 2 µg/mL (≈ 5.72 µM).

Q: With `COc1cccc2c1C(=O)c1c(O)c3c(c(O)c1C2=O)C[C@@](O)(C(=O)CO)C[C@@H]3O[C@H]1C[C@H](N)[C@H](O)[C@H](C)O1` [DOXORUBICIN] as the compound, how does the IC50 (RKO) read?
A: The IC50 was 1.5 µM.

Q: What about the IC50 (HeLa) of the same compound?
A: Its IC50 is 0.8 µM.

Q: What about the IC50 (L02) of the same compound?
A: The IC50 was 8.6 µM.

Q: And the IC50 (HepG2)?
A: Its IC50 is 0.7 µM.

Q: What about the IC50 [2] of the same compound?
A: Its IC50 is 7.2 µM.

Q: What about the IC50 (MGC-803) of the same compound?
A: The IC50 was 3.6 µM.

Q: And the IC50 (MCF7)?
A: The IC50 was 0.8 µM.

Q: Which MIC (Bacillus thuringiensis) does the source give for `NC[C@H]1O[C@H](O[C@H]2[C@H](O)[C@@H](O[C@H]3O[C@H](CO)[C@@H](O)[C@H](N)[C@H]3O)[C@H](N)C[C@@H]2N)[C@H](O)[C@@H](O)[C@@H]1O` [KANAMYCIN] here?
A: Its MIC is 8 µg/mL (≈ 16.5 µM).

Q: And the MIC (Bacillus subtilis)?
A: Its MIC is 8 µg/mL (≈ 16.5 µM).

Q: And the MIC (Staphylococcus aureus [1])?
A: Its MIC is 64 µg/mL (≈ 132 µM).

Q: And the MIC (Enterococcus faecalis)?
A: The MIC was 32 µg/mL (≈ 66 µM).

Q: And the MIC (Staphylococcus aureus [3])?
A: The MIC was 64 µg/mL (≈ 132 µM).

Q: What about the MIC (Staphylococcus aureus [4]) of the same compound?
A: Its MIC is 16 µg/mL (≈ 33 µM).

Q: For `CN[C@H](CC(C)C)C(=O)N[C@H]1C(=O)N[C@@H](CC(N)=O)C(=O)N[C@H]2C(=O)N[C@H]3C(=O)N[C@H](C(=O)N[C@H](C(=O)O)c4cc(O)cc(O)c4-c4cc3ccc4O)[C@H](O)c3ccc(c(Cl)c3)Oc3cc2cc(c3O[C@@H]2O[C@H](CO)[C@@H](O)[C@H](O)[C@H]2O[C@H]2C[C@](C)(N)[C@H](O)[C@H](C)O2)Oc2ccc(cc2Cl)[C@H]1O` [VANCOMYCIN], which MIC (Bacillus thuringiensis) is on record?
A: Its MIC is 2 µg/mL (≈ 1.38 µM).

Q: What about the MIC (Bacillus subtilis) of the same compound?
A: Its MIC is 1 µg/mL (≈ 0.69 µM).
